These results are taken from US5840697A, “Peptide inhibitors of calmodulin” (Torrey Pines Institute for Molecular Studies, priority 1996, dated 1998).

Assay [1] has as its target phosphodiesterase. Briefly: calcium-dependent phosphodiesterase assay in the absence of calmodulin. Conditions: Table III. In kind it is biochemical. How it is done:
To sample assay tubes were added the following components: assay buffer, 25 ul; CaCl2, 5 ul; 5'-nucleotidase, 7.5 ul (stock solution is 10 units/ml); calmodulin 5 units; calmodulin inhibitor peptides to obtain the desired final concentration of 50 μM. The volume was then made up to 200 ul with water. Control blanks were prepared replacing the peptides with water. The added components were thoroughly mixed and the tubes incubated at 30° C. for 10 min. Then, 25 ul of cAMP at 10.8 mM was added and incubated for 90 min at 30° C. The reaction was stopped by the addition of 50 ul of 55% trichloroacetic acid (TCA). The samples were centrifuged to remove the protein precipitate and the 50 ul of the supernatant was withdrawn for phosphate measurement. To the supernatant aliquot, 50 ul ammonium molybdate (0.55% in 1.1 N sulfuric acid) was added, followed by the addition of 5 ul of reducing agent (24 g sodium bisulfite, 2.4 g sodium sulfite, 0.5 g of 1-amino-2-naphthol-4-sulfonic acid in 200 ml of water), and the contents were mixed by vortexing. The absorbance of the solution were read at 660 nm using water as a blank, identified as control "Calmo."
As described above, one of the undesirable biological effects of existing calmodulin inhibitors is their non-specific binding to other proteins and the like. Therefore, the specificity of the instant inhibitory peptides for calmodulin was examined. The specificity was determined using the calcium-dependent phosphodiesterase assay described in Example I. The assay was carried out for the determination of IC50 values in the presence of calmodulin (IC50 value for calmodulin) and in the absence of calmodulin (IC50 for phosphodiesterase), the latter of which provides the effect of the inhibitory peptides on the phosphodiesterase.

Assay [2] has as its system rat liver cells. Put plainly: in vivo rat model: DNA synthesis of rat liver cells after partial hepatectomy. Conditions: intravenous injection 5 hours after partial hepatectomy, measured 24 hours post hepatectomy. An excerpt: The effect that calmodulin inhibitors have on DNA synthesis were also studied in vivo in a rat model. Rat liver cells are a useful in vivo system for studying synchronized cells and the cell cycle. By partial hepatectomy, the hepatocyte quiescent cells present in normal adult rat liver can be stimulated to enter the replicative cell cycle and the effect of inhibitors on the cycle analyzed. This example provides the effect of the subject calmodulin inhibitory peptides on the DNA synthesis of rat liver cells in partial hepatectomy stage following intra venal injection of the peptides.
Male Sprague-Dawley rats ([…]; 2 rats per peptide or control) were fasted overnight. Partial hepatectomies were carried out under Ketolar anesthesia (Parke-Davis; Ann Arbor, Mich.), following the procedure described by Higgins and Anderson in Arch. Pathol., 12:186-202 (1931), which is incorporated herein by reference. […] DNA synthesis was assessed by measuring the radioactivity incorporated into DNA following an intraperitoneal injection (0.5 mCi/g body weight) of [^3 H] thymidine 1 hr prior to killing the rat and at 23 hours post hepatectomy. […] The liver tissue was homogenized in 10% trifluoroacetic acid at 4° C. and the DNA extracted and its radioactivity measured following the procedure described by Burton, Biochem. J., 62:315-320 (1956), which is incorporated herein by reference. […]

The subject of assay [3] is normal rat kidney (NRK) cells. Put plainly: DNA synthesis ([3H]-thymidine incorporation) in cell culture. In kind it is cell-based. Conditions: added at 5 hr. How it is done: Following the methods described in Lopez-Girona et al., Cell Calcium, 18:30-40 (1995), which is incorporated herein by reference, the effect of calmodulin inhibitory peptides on DNA synthesis was investigated. Specifically, peptides were added to culture media and assessed for their ability to inhibit the progression of normal rat kidney (NRK) cells into the S phase of the cell cycle; the DNA synthesis phase into the cell growth cycle. Such inhibition has been shown for existing anti-calmodulin drugs such as W13.
NRK cells were made quiescent by growing them to confluence in Dulbecco's minimum essential medium supplemented with 5% fetal calf serum (FCS), and then kept for 3-4 days in the same medium but with only 0.5% FCS. To allow them to re-enter the cell cycle, quiescent cells were trypsinized and subcultured at a lower density in fresh medium supplemented with 5% FCS.
DNA synthesis was analyzed by the measurement of [^3 H]-thymidine into whole cell DNA. NRK cells (10^5 per 35 mm plate) were pulse labeled for 1 hr with [methyl-^3 H]-thymidine (5 Ci/mmol) at 4 μCi/ml in Dulbecco's minimum essential medium supplemented with 5% FCS. Precipitation and solubilization of DNA was carried out as described in Cripps-Wolfman et al., J. Biol. Chem., 264:19478-19486 (1989), which is incorporated herein by reference.
The NRK cells stimulated to proliferate by addition of 5% FCS enter synchronously into the cell cycle and start the S phase after 12 hr reaching a maximum between 18 to 20 hr. The peptides were added at 5 hr (time at which the cells have already reenter the G1 phase). […] Similar results were found between the (D)-amino acid peptides and their (L)-counterpart.
A general note: Uptake of a labelled nucleoside into DNA is a usual measure of proliferation.

Assay [4] addresses calmodulin (Homo sapiens, UniProt P0DP23). Put plainly: calcium-dependent phosphodiesterase assay (calmodulin activity). The format is biochemical. As to conditions: for SPECIFICITY: comparison of IC50 for phosphodiesterase with IC50 for calmodulin; for calmodulin inhibitory activity, in words: (L)-amino acid peptides of Table II. How it is done:
In the calcium dependent phosphodiesterase assay, calmodulin can be assayed by its ability to stimulate phosphodiesterase activity as determined by a two-step assay procedure illustrated by reactions (1) and (2) below. [drawing 1]
During the first step of the assay cyclic adenosine 3'5'-monophosphate (cAMP) is incubated with calcium-activated phosphodiesterase (Cal-PDE), which hydrolyses the 3'bond producing adenosine 5'-monophosphate (5'-AMP). During the second step, 5'-AMP is quantitatively converted into adenosine and inorganic phosphate (Pi) through the action of a 5-nucleotidase. The reaction is followed by the measurement of the Pi formed by reading the absorbance at 660 nm after reacting with ammonium molybdate. The amount of Pi formed is directly related to the phosphodiesterase activity which depends on the level of activation by calmodulin.
To sample assay tubes were added the following components: assay buffer, 25 ul; CaCl2, 5 ul; 5'-nucleotidase, 7.5 ul (stock solution is 10 units/ml); calmodulin 5 units; calmodulin inhibitor peptides to obtain the desired final concentration of 50 μM. The volume was then made up to 200 ul with water. Control blanks were prepared replacing the peptides with water. The added components were thoroughly mixed and the tubes incubated at 30° C. for 10 min. […] The samples were centrifuged to remove the protein precipitate and the 50 ul of the supernatant was withdrawn for phosphate measurement. […] The absorbance of the solution were read at 660 nm using water as a blank, identified as control "Calmo."
The two controls used in the assay, one without and one with calmodulin, as indicated in FIG. 1 and Table I were as follows,: (1) PDE:
These three controls were used in the calcium-dependent phosphodiesterase assay for reproducibility of the assay.
In addition to the calcium-dependent phosphodiesterase assay data, IC50 values were determined for many of the peptides. The assay carried out for the determination in the IC50 values differed from the above screening assay by the concentration of the peptides being tested.
(3) TFP: trifluoperazine; and (4) Calmidasolium: (1-[bis-(4-chlorophenyl)methyl]-3[-2-(2,4-dichlorophenyl)-2[(2,4-dichlorophenyl)methoxy]-ethyl]-1H-imidazolium chloride. The IC50 values were calculated using sigmoidal curve software (Graphpad, ISI; San Diego, Calif.) using the % inhibition at different mixture concentrations (see protocol for determination of % inhibition).
The (L)-amino acid counterpart for five (5) of the all (D)-amino acid peptides identified from the PS-SCL were synthesized in order to study the stereoselectivity of the inhibition.

In assay [5] the test system is NRK cells. Briefly: long term stability: number of NRK cells at 48 hr after activation. Conditions: added at 5 hr, counted 48 hr after activation. In kind it is cell-based, rat. An excerpt: The similar activity found for the (L)-amino acid peptides and (D)-amino acid peptides indicate that the inhibition of calmodulin occurs rapidly following the addition of the inhibitory peptides. The peptides' long term stability was then studied by adding Ac-(D)Leu-(D)Trp-(D)Arg-(D)Ile-(D)Leu-(D)Trp-NH2, Ac-Leu-Trp-Arg-Ile-Leu-Trp-NH2 (SEQ ID No. 48), W13 and W12 at 5 hr following the reentry of the NRK cells into the cell cycle and measuring the number of cells at 48 hr after activation.

Setting [6] is: Table I, assayed at 75, 50 and 12.5 μM, average of repeated assays, read-out: Average IC50.
The mark [7] stands for this setting: Table II, (L)-amino acid peptides, concentrations 0.2 to 50.0 μM, read-out: IC50.

Where two headings read alike, the source gives them in different places. Square brackets hold non-standard residues; d marks the D form. Peptide text beside a SMILES is read from it.

Turning to `CC[C@@H](C)[C@@H](NC(=O)[C@@H](CCC(N)=O)NC(=O)[C@@H](CC(C)C)NC(C)=O)C(=O)N[C@H](Cc1c[nH]cn1)C(=O)N[C@H](CC(C)C)C(=O)N[C@H](CCCNC(=N)N)C(N)=O` [Ac-(D)Leu-(D)Gln-(D)Ile-(D)His-(D)Leu-(D)Arg-NH2] (Ac-[dL][dQ][dI][dH][dL][dR]-NH2), the IC50 came out at 104 µM in assay [1]; 70 µM in assay [4] (setting [6]); 43 µM in assay [4] (Table III, in the presence of calmodulin, read-out: IC50 (μM) for calmodulin). The entries for the “% DNA SYNTHESIS” value in assay [2], in assay [3] (7.5 μM) and in assay [3] (15 μM) were 100%, 100% and 84%, respectively. For the same molecule, the SPECIFICITY in assay [4] is reported as 2.4.
Regarding `CC[C@H](C)[C@H](NC(=O)[C@H](CCCNC(=N)N)NC(=O)[C@H](Cc1c[nH]c2ccccc12)NC(=O)[C@H](CC(C)C)NC(C)=O)C(=O)N[C@@H](CC(C)C)C(=O)N[C@@H](CCCNC(=N)N)C(N)=O` [Ac-Leu-Trp-Arg-Ile-Leu-Arg-NH2] (Ac-LWRILR-NH2), in assay [1], the IC50 was above 200 µM. Further, in assay [4], the “calmodulin inhibitory activity, in words” value was “especially high activity” and the SPECIFICITY is on record as above 69. In addition, the IC50 in assay [4] (setting [7]) was 2.89 µM.
Regarding `CC[C@H](C)[C@H](NC(=O)[C@H](CCCNC(=N)N)NC(=O)[C@H](Cc1c[nH]c2ccccc12)NC(=O)[C@H](CC(C)C)NC(C)=O)C(=O)N[C@@H](CC(C)C)C(=O)N[C@@H](Cc1c[nH]c2ccccc12)C(N)=O` [Ac-Leu-Trp-Arg-Ile-Leu-Trp-NH2] (Ac-LWRILW-NH2), the values for the IC50 in assay [1] and in assay [4] (setting [7]) were above 200 µM and 0.88 µM, respectively. The “number of cells relative to control cells” value in assay [5] is reported as “the same number of cells”. The “calmodulin inhibitory activity, in words” value in assay [4] was “especially high activity”. In addition, in assay [4], the SPECIFICITY was above 227.
`NCCCCNS(=O)(=O)c1ccc2ccccc2c1` [Peptide W12, reference compound]: the “number of cells relative to control cells” value in assay [5] is given as “the same number of cells”. For the same molecule, the “% DNA SYNTHESIS” value in assay [3] (30 μM) worked out at 100%.
On to `NCCCCNS(=O)(=O)c1ccc2c(Cl)cccc2c1` [Peptide W13, N-(4-aminobutyl)-5-chloro-2-naphtalenesulfonamide, reference compound], for which, in assay [5], the “number of cells relative to control cells” value is on record as “significantly lower number of cells”. Further, the “% DNA SYNTHESIS” value in assay [3] (30 μM) turned out to be 60%. In assay [4] (setting [6]), the IC50 was 93 µM.

Usually IC50 stands for the concentration at which inhibition is half-maximal.
